This passage reports IC50, Ki and Kd results from ChEMBL document CHEMBL4270584, “In silico fragment-based drug design with SEED” (Eur J Med Chem, 2018).

One experiment has as its target Beta-secretase 1 (Homo sapiens, UniProt P56817). Kind of experiment: Inhibition of human BACE-1 after 30 mins by FRET assay.
Experiment [1] has as its target T1, 3-dehydroquinate dehydratase (Helicobacter pylori (strain ATCC 700392 / 26695) (Campylobacterpylori), UniProt Q48255).
T1 sequence (Q48255 whole entry): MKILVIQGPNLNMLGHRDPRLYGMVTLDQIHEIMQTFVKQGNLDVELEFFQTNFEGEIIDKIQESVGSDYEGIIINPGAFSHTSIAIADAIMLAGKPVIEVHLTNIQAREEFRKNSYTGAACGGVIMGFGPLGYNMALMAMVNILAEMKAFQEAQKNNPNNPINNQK
Kind of experiment: Inhibition of Helicobacter pylori DHQ2.

Experiment [2] addresses T2, ATPase family AAA domain-containing protein 2 (Homo sapiens, UniProt Q6PL18).
T2 sequence (Q6PL18 whole entry): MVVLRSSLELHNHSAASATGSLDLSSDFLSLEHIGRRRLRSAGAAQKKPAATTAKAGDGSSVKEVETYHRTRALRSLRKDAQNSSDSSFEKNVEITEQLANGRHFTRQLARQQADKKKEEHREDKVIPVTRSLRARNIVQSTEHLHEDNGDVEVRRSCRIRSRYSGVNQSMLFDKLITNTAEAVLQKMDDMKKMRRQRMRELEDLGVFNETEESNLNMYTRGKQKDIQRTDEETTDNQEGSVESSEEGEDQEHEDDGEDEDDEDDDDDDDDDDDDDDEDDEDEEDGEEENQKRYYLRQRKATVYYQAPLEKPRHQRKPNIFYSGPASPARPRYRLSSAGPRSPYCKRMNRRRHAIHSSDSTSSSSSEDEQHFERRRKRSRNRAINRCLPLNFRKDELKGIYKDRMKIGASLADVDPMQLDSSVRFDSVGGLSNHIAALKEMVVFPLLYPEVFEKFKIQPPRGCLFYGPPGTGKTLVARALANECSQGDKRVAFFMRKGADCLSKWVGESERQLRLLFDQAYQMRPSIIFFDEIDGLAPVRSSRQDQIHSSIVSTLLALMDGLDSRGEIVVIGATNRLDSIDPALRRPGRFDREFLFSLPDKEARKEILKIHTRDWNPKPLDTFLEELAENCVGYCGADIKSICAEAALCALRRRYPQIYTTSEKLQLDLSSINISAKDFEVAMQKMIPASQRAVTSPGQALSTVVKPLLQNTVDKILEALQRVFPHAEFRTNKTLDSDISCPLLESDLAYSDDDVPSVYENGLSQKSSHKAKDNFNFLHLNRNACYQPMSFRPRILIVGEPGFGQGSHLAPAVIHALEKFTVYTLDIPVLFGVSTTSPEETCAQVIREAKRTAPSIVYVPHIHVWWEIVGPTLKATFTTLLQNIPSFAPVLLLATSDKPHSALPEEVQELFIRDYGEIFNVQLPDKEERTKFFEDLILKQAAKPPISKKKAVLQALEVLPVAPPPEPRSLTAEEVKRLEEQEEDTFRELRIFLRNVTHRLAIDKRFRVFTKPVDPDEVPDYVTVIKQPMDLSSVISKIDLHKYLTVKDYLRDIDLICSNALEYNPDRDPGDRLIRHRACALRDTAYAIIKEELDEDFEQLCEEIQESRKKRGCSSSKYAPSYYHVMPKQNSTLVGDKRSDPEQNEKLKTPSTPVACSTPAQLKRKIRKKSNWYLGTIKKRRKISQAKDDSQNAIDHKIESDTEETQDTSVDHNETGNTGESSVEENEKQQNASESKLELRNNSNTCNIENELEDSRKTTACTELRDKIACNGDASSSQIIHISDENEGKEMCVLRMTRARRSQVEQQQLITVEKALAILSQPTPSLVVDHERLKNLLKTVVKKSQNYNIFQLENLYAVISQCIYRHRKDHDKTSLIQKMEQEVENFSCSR
Kind of experiment: Inhibition of H4K5/8/12/16-Ac-biotin binding to human ATAD2 by Alpha screen assay.

The target in experiment [3] is T3, Bromodomain-containing protein 4 (Homo sapiens, UniProt O60885). Kind of experiment: Binding affinity to human BRD4 bromodomain-1.
The next experiment deals with CREB-binding protein (Homo sapiens, UniProt Q92793). Kind of experiment: Inhibition of H4K5/8/12/16-Ac-biotin binding to human CREBBP by Alpha screen assay.
Sequence of CREB-binding protein (Q92793 whole entry): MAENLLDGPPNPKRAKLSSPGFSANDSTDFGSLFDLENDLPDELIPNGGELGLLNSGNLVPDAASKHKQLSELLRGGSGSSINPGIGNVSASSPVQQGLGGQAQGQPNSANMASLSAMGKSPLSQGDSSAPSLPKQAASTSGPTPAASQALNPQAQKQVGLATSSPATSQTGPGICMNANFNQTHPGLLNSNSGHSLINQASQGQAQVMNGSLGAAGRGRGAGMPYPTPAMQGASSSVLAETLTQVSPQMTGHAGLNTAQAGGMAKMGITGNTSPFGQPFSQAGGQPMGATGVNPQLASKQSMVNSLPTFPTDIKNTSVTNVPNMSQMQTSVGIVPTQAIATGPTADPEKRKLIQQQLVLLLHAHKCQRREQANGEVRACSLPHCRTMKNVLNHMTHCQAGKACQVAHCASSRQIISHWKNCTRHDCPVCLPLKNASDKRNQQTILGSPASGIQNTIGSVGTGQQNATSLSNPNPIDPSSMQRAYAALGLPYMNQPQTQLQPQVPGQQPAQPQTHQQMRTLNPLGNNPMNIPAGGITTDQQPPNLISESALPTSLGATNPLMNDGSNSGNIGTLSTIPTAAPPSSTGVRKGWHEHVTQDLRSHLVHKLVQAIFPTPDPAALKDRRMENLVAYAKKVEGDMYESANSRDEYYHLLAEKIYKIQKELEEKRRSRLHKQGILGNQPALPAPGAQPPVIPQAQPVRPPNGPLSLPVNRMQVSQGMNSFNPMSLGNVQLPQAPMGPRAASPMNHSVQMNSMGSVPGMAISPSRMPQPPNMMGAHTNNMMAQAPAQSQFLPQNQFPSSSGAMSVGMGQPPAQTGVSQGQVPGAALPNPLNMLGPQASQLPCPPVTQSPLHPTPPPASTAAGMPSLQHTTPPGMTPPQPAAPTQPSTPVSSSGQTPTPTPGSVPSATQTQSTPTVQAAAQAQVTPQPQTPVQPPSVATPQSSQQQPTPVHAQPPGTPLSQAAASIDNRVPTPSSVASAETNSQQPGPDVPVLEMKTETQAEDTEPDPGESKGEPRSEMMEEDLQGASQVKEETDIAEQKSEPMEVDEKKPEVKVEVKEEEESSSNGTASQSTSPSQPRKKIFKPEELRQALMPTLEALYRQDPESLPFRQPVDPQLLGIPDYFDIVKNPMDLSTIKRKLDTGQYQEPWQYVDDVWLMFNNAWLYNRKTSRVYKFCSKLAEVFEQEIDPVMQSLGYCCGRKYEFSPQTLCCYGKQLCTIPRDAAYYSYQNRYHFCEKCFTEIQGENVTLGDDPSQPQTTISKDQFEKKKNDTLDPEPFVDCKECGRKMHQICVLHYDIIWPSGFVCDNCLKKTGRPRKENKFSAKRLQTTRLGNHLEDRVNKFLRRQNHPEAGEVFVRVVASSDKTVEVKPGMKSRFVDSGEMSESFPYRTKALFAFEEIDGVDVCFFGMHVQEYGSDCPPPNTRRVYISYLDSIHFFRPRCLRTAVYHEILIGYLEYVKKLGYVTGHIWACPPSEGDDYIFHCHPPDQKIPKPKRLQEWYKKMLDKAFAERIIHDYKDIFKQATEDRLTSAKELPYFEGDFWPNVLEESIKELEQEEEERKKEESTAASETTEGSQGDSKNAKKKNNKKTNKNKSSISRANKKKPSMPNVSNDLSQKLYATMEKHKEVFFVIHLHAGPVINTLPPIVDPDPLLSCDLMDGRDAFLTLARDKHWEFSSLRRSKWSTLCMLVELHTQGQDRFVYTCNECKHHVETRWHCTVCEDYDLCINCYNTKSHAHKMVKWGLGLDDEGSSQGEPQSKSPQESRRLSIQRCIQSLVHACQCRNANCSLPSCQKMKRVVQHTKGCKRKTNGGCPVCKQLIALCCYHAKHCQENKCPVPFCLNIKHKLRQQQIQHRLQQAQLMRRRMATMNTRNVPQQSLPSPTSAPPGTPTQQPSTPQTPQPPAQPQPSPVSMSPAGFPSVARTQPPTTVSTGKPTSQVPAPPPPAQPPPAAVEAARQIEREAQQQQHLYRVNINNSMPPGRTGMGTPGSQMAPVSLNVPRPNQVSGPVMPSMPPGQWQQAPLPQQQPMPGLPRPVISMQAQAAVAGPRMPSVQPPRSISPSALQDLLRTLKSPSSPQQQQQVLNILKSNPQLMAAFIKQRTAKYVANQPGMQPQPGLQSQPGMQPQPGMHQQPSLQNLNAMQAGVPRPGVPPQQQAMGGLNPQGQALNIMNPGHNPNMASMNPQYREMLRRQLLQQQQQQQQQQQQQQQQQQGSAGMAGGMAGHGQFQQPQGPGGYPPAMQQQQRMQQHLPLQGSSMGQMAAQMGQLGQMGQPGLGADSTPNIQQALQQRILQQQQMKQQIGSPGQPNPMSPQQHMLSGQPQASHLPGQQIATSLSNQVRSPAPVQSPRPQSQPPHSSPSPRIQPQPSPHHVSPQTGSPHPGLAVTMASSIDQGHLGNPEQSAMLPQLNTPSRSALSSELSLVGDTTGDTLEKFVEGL
The target in experiment [4] is T3, Bromodomain-containing protein 4. Kind of experiment: Inhibition of H4K5/8/12/16-Ac-biotin binding to human BRD4 bromodomain-1 by Alpha screen assay.

Sequence of Beta-secretase 1 (P56817 whole entry): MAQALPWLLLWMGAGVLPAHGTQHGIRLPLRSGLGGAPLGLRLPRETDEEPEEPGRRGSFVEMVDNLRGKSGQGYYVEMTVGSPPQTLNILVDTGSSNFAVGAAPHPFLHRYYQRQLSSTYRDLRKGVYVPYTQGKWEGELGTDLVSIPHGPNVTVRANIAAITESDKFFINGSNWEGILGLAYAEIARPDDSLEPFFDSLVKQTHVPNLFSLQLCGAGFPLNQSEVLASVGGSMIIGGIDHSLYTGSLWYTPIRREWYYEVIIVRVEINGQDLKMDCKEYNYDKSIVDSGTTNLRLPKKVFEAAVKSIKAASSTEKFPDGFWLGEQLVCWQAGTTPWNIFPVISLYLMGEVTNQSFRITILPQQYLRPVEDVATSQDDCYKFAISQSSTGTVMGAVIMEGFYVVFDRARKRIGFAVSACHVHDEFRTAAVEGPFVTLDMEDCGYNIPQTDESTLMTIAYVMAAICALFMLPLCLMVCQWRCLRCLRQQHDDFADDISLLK

Consider `O=C(O)c1cc(-c2ccc(/C=N/Nc3nc(Nc4ccc(F)cc4)nc(N4CCOCC4)n3)o2)ccc1Cl`, for which the IC50 at Beta-secretase 1 was 7 µM.

In experiment [1], `CC(C)[C@H](NC(=O)CCCn1c(=O)[nH]c2ccccc2c1=O)C(=O)O` yielded a Ki of 19 µM.

In experiment [2], `Cc1ccc(OCCCC(=O)Nc2nc(C)c(C)s2)cc1` came in with an IC50 of 23 µM.

In experiment [3], `CC(=O)N(C)c1cccc(-c2ccc3nnc(C)n3n2)c1` registered a dissociation constant (Kd) of 7 µM.

The compound `O=C1CNCC(C(=O)NCCn2nc(-c3ccccc3)ccc2=O)N1` (stereo unspecified) registered a half-inhibitory concentration (IC50) at CREB-binding protein of 55 µM.

`COc1cc(/C=C2\SC(=O)N=C2N)ccc1O` returned an IC50 in experiment [4] of 22 µM.

What is called IC50 is the midpoint of a concentration-inhibition curve. Read a high IC50 as weaker potency in that assay. For orientation: Ki means a dissociation constant, usually derived from enzyme kinetics or from competition with a known ligand. Usually Kd stands for the concentration at which binding is half-saturated. A higher Kd goes with lower affinity.
